Data reported in ChEMBL document CHEMBL5050851, “Compounds that induce ferroptic cell death” (2020).

What was measured:
ES-2 = assay: Antiproliferative activity against human ES2 cells assessed as cell death after 72 hrs by Alamar blue viability assay; assay type: functional, cell-based; settings: ES-2, 72 h
HCT-116 = assay: Antiproliferative activity against human HCT-116 cells assessed as cell death after 72 hrs by Alamar blue viability assay; assay type: functional, cell-based; settings: HCT-116, 72 h

Molecule `CO[C@H]1C[C@@]23CC[C@@H](C)[C@@](C)([C@H](OC(=O)CCl)C[C@@H](C4=CCn5c(=O)n(-c6ccccc6)c(=O)n5C4)[C@@H]2C)[C@]3(O)C1=O` has an IC50 (ES-2) of 1.9 µM and an IC50 (HCT-116) of 3 µM.

With `CO[C@H]1C[C@@]23CC[C@@H](C)[C@@](C)([C@H](OC(=O)c4ccco4)C[C@@H](C4=CCn5c(=O)n(-c6ccccc6)c(=O)n5C4)[C@@H]2C)[C@]3(O)C1=O` the IC50 (ES-2) was > 100 µM and the IC50 (HCT-116) was > 100 µM.

Molecule `CC(=O)O[C@H]1C[C@@]23CC[C@@H](C)[C@@](C)([C@H](OC(=O)CCl)C[C@@H](C4=CCn5c(=O)n(-c6ccccc6)c(=O)n5C4)[C@@H]2C)[C@]3(O)C1=O` has an IC50 (ES-2) of 1.4 µM and an IC50 (HCT-116) of 3.9 µM.
